Assay results: patent US20240261317A1, “METHODS OF TREATING MEDICAL CONDITIONS AND INHIBITING LINE1 REVERSE TRANSCRIPTASEUSING A SUBSTITUTED 4-FLUORO-2,5-DIHYDROFURANYL PHOSPHONIC ACID OR RELATED COMPOUND” (ROME Therapeutics, Inc., priority 2021, published 2024)

Key:
[1] = biological target: T1, LINE1 reverse transcriptase (Homo sapiens, UniProt O00370); test: Stable artificial-intron Cis LINE1 reporter assay in HeLa Tet-On 3G cells; assay type: cell-based; design: expressed in transfected cells; host or cells: HeLa Tet-On 3G (Takara, cat no 631183)
Excerpt: A stable HeLa Tet-On 3G (Takara, cat no 631183) cell line expressing a bi-directional inducible LINE1 construct was generated as described in Xie, Y. et al. “Cell division promotes efficient retrotransposition in a stable L1 reporter cell line,” Mobile DNA (2013) 4:10. Single cell clones were screened for high Luciferase expression and the highest expression Firefly expressing clone was chosen for compound testing.
Test compounds were serially diluted in DMSO and spotted in 96-well plates. Subsequently the HeLa L1 artificial-intron reporter cells were plated into the compound-containing wells (8,000 cells/well), and the cells were induced for reporter expression with doxycycline (Sigma cat no D9891) at a final concentration of 500 ng/mL. Luminescence was measured 72 h after plating using the Dual-Glo Luciferase Assay System (Promega cat no E2940) following the manufacturer's instructions. The Firefly Luciferase activity was used to report LINE1 activity.

[2] = biological target: T1, LINE1 reverse transcriptase; test: Transient artificial-intron Cis LINE1 reporter assay (FLuc/RLuc ratio); assay type: cell-based; design: expressed in transfected cells; conditions: HEK 293 cells
Method: (§1) Intron-disrupted Firefly luciferase (FLuc) expression cassettes were generated as described by Xie, Y. et al. “Characterization of L1 retrotransposition with high-throughput dual-luciferase assays,” Nucleic Acid Res. (2011) Vol. 39, No. 3, e16. In addition, the plasmid contained an intact Renilla luciferase (RLuc) expression cassette on the vector backbone, in order to normalize transfection efficiency and measure potential cell toxicity.
(§2) HEK 293 cells were seeded in 96-well plates at 1,000 cells/well in 55 μL and grown for 24 hours. Cells were transfected with FuGeneHD (Promega) following the manufacturer's protocol. Each well received 0.133 ng plasmid, 0.4 μL FuGeneHD reagent, and 4.5 μL GlutaMAX-I-supplemented Opti-MEM I reduced-serum medium (Invitrogen). Cells were simultaneously treated with test compound serially diluted starting at 100 μM in a 3-fold dilution dose response.
(§3) Luminescence was measured using the Dual-Glo Luciferase Assay System (Promega) following the manufacturer's instructions. The ratio between FLuc and RLuc gene expression was used to report LINE1 activity.

[3] = biological target: T2, recombinant MBP-tagged LINE1 protein (238-1061) (Homo sapiens, UniProt O00370); test: Homogeneous time-resolved fluorescence (HTRF) LINE1 RT assay; assay type: biochemical; conditions: tested as tri(ammonium) salt, read-out: IC50 for inhibition of LINE1 reverse transcriptase
T2 construct: recombinant MBP-tagged LINE1 protein (238-1061); made in house
Method: The LINE1 reverse transcriptase homogeneous time-resolved fluorescence (HTRF) assay was performed with recombinant MBP-tagged LINE1 protein (238-1061) (generated and purified according to procedures in Dai L. et al. BMC Biochemistry 2011; 12:18) in a 384-well format. Test compound was serially diluted in DMSO and further diluted in the assay buffer (50 mM Tris-HCl, 50 mM KCl, 10 mM MgCl2, 10 mM DTT, pH 8.1) to achieve a final DMSO concentration of 1%. The serially diluted compound was mixed with 64 ng/well of LINE1 enzyme, 5 nM of pre-annealed template/biotin-primer pair (synthesized at Generay Biotechnology), 10 nM of Fluorescein-12-dATP fluorescent probe (Perkin Elmer), and 1 μM dGTP/dCTP/dTTP (Thermo Fisher Scientific) in the assay buffer. The template/biotin-primer sequences were as follows:
(§4) After incubating at 25° C. for 60 minutes, the detection reagent (20 mM EDTA with streptavidin-terbium cryptate, Cisbio Bioassay) in the PPI buffer (Cisbio Bioassay) was added, and the mixture was incubated at 25° C. for 30 minutes. At the end of the incubation, fluorescence was read at ex/em=337/485 nm and ex/em=337/520 nm on an Envision 2104 plate reader (Perkin Elmer). The fluorescence ratio at 520/485 nm was used for the calculation. […] The IC50 was calculated by fitting the compound dose inhibition curve with a 4-parameter non-linear regression equation.

[4] = biological target: T3, HERV-K reverse transcriptase (2-596)-8His protein (Homo sapiens, UniProt V9H0F6); test: Homogeneous time-resolved fluorescence (HTRF) HERV-K RT assay; assay type: biochemical; conditions: tested as tri(ammonium) salt, read-out: IC50 for inhibition of HERV-K reverse transcriptase
T3 construct: fused on or other part: C-terminal 8His tag
T3 sequence (V9H0F6 entry or part of it): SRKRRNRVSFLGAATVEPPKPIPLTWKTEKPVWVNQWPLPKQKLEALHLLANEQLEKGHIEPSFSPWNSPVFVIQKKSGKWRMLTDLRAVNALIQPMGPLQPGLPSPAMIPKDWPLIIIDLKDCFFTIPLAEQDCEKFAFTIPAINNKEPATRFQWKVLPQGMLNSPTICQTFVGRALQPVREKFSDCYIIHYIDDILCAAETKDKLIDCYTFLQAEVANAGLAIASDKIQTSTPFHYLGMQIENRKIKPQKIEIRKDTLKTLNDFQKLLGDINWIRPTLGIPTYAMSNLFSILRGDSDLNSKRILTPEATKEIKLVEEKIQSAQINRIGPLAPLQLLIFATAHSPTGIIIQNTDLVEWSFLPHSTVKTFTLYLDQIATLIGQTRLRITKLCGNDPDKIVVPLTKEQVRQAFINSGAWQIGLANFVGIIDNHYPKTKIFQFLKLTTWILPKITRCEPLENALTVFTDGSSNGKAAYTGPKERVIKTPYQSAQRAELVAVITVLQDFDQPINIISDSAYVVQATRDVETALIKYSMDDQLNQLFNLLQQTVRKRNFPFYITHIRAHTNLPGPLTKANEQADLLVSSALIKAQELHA
Method: The HERV-K reverse transcriptase homogeneous time-resolved fluorescence (HTRF) assay was performed in a 384-well format with HERV-K reverse transcriptase (2-596)-8His protein. Baculoviruses were created using Bac-to-Bac technology (Invitrogen). pFastBac donor plasmids containing HERV-K reverse transcriptase sequence (NCBI GenBank number AAC63291.1, J. Virology (1999) Vol. 73, No. 3, pp. 2365-2375) were transformed into DH10 Bac cells following the manufacturer's instructions. Recombinant bacmids were then isolated clonally and transfected into SF9 cells with lipofectin. HERV-K reverse transcriptase was expressed in the SF9 insect cells and then purified using immobilized metal affinity chromatography (IMAC) followed by size-exclusion chromatography (SEC). […]
as §4, with “30” for “60”, “20” for “(20”, “cryptate (Cisbio” for “cryptate, Cisbio”, “60” for “30”

HEK 293 cells = test: Transient LINE1 reporter assay, Renilla luciferase (RLuc) control readout for potential cell toxicity; assay type: cell-based; conditions: even at the highest dose tested (100 μM), FIG. 1
Method: as §1, §2, §3

[5] = HeLa L1 artificial-intron reporter cells, doxycycline induced, 72 h, Firefly luciferase, read-out: IC50
[6] = transient LINE1 reporter, Table 5 of Example 1, read-out: IC50

`Nc1nc(F)nc2c1ncn2[C@@H]1O[C@H](OCP(=O)(O)O)C=C1F` [Compound V-1, sodium ((((2R,5R)-5-(6-amino-2-fluoro-9H-purin-9-yl)-4-fluoro-2,5-dihydrofuran-2-yl)oxy)methyl)phosphonate] gave an IC50 [1, 5] of over 500 nM.

In the case of `CCOC(=O)[C@H](C)NP(=O)(CO[C@@H]1C=C(F)[C@H](n2cnc3c(N)nc(F)nc32)O1)Oc1ccccc1` (stereo partly drawn) [Compound V-2, ethyl (2S)-2-[({[(2R,5R)-5-(6-amino-2-fluoropurin-9-yl)-4-fluoro-2,5-dihydrofuran-2-yl]oxy}methyl(phenoxy)phosphoryl)amino]propanoate], the IC50 [1] is reported as over 500 nM.

`CCOC(=O)[C@H](C)N[P@](=O)(CO[C@@H]1C=C(F)[C@H](n2cnc3c(N)ncnc32)O1)Oc1ccccc1` [II-1, ethyl ((S)-((((2R,5R)-5-(6-amino-9H-purin-9-yl)-4-fluoro-2,5-dihydrofuran-2-yl)oxy)methyl)(phenoxy)phosphoryl)-L-alaninate] showed an IC50 [2, 6] of under 50 nM and an IC50 [1, 5] of under 50 nM.

In the case of `CCOC(=O)[C@H](C)N[P@@](=O)(CO[C@@H]1C=C(F)[C@H](n2cnc3c(N)ncnc32)O1)Oc1ccccc1` [II-2, ethyl ((R)-((((2R,5R)-5-(6-amino-9H-purin-9-yl)-4-fluoro-2,5-dihydrofuran-2-yl)oxy)methyl)(phenoxy)phosphoryl)-L-alaninate], the IC50 [2, 6] is reported as under 50 nM and the IC50 [1, 5] is reported as under 50 nM.

Work on `Nc1ncnc2c1ncn2[C@@H]1O[C@H](OCP(=O)(O)O)C=C1F` [III-1, Sodium ((((2R,5R)-5-(6-amino-9H-purin-9-yl)-4-fluoro-2,5-dihydrofuran-2-yl)oxy)methyl)phosphonate] yielded an IC50 [1, 5] of over 500 nM.

In the case of `Nc1ncnc2c1ncn2[C@@H]1O[C@H](OCP(=O)(O)OP(=O)(O)OP(=O)(O)O)C=C1F` [IV-1], the IC50 [3] is reported as 100 nM and the IC50 [4] is reported as 120 nM.

With `Nc1ncnc2c1ncn2[C@@H]1O[C@H](OCP(=O)(O)O)C=C1F` [Test Compound] the IC50 ([2]; transient transfection, FIG. 1, read-out: IC50 for inhibition of FLuc (FF/RR)) was 1000 nM and the “impact on RLuc expression (Renilla)” value (HEK 293 cells) was “without any material impact”.
